One test deals with Aphis gossypii. The test can be described thus: Aphis gossypii test (cotton leaf immersion). Particulars: 144 h, after 6 days at a concentration of 100 ppm, cotton leaves (Gossypium hirsutum), read-out: death rate. In kind it is in vivo. The procedure: After the desired time the death rate was determined in %, where 100% means that all aphids were killed; 0% means that no aphids were killed

The test system of another test is Myzus persicae. Briefly: Myzus test (spray treatment). In kind it is in vivo. To be noted: 120 h, after 5 days at a concentration of 500 g/ha, read-out: death rate. The procedure: After the desired time the death rate was determined in %, where 100% means that all aphids were killed; 0% means that no aphids were killed.
[1] abbreviates: China cabbage leaves (Brassica pekinensis).

Read-outs that look alike come from different tables or passages of the source. A value given as a limit tells only on which side of the number the result lay.

In the case of `FC(F)(F)c1ccncc1-c1ncc2ccccn12` [Example 1, 3-(4-trifluoromethylpyridin-3-yl)-imidazo[1,5-a]pyridine], the pest or weed control at 100 ppm in the test with Aphis gossypii was at least 80%. Also, in the test with Myzus persicae (setting [1]), the pest or weed control at 500 g/ha is at least 80%.
For `FC(F)(F)c1ccncc1-c1nc(Br)c2ccccn12` [Example 3, 1-bromo-3-(4-trifluoromethylpyridin-3-yl)-imidazo[1,5-a]pyridine], the pest or weed control at 500 g/ha in the test on Myzus persicae (setting [1]) was at least 80%.
`FC(F)(F)c1ccncc1-c1nc(Cl)c2ccccn12` [Example 4, 1-chloro-3-(4-trifluoromethylpyridin-3-yl)-imidazo[1,5-a]pyridine]: the pest or weed control at 100 ppm with Aphis gossypii is at least 80%. In addition, in the test on Myzus persicae (setting [1]), the pest or weed control at 500 g/ha is at least 80%.
Consider `O=Cc1nc(-c2cnccc2C(F)(F)F)n2ccccc12` [Example 5, 3-(4-trifluoromethylpyridin-3-yl)-imidazo[1,5-a]pyridine-1-carboxaldehyde], for which, in the test on Aphis gossypii, the pest or weed control at 100 ppm is at least 80%. The pest or weed control at 500 g/ha in the test on Myzus persicae (setting [1]) was at least 80%.
Turning to `CO/N=C/c1nc(-c2cnccc2C(F)(F)F)n2ccccc12` [Example 6, 1-methoximinomethyl-3-(4-trifluoromethylpyridin-3-yl)-imidazo[1,5-a]-pyridine], in the test on Aphis gossypii, the pest or weed control at 100 ppm is at least 80%. In addition, the pest or weed control at 500 g/ha with Myzus persicae (setting [1]) is at least 80%.
As to `FC(F)(F)c1ccncc1-c1nc(-c2cccc(Cl)c2)c2ccccn12` [Example 7, 1-(3-chlorophenyl)-3-(4-trifluoromethylpyridin-3-yl)-imidazo[1,5-a]-pyridine], the pest or weed control at 500 g/ha with Myzus persicae (setting [1]) is at least 80%.
As to `FC(F)(F)c1ccncc1-c1nc(C#Cc2ccccc2)c2ccccn12` [Example 8, 1-(phenylethynyl)-3-(4-trifluoromethylpyridin-3-yl)-imidazo[1,5-a]-pyridine], in the test with Aphis gossypii, the pest or weed control at 100 ppm is at least 80%. Further, the pest or weed control at 500 g/ha with Myzus persicae (setting [1]) was at least 80%.
As for `FC(F)(F)c1cc(Cl)c2c(Cl)nc(-c3cnccc3C(F)(F)F)n2c1` [Example 38], in the test with Aphis gossypii, the pest or weed control at 100 ppm is at least 80%. Further, the pest or weed control at 500 g/ha with Myzus persicae (setting [1]) was at least 80%.
For `FC(F)(F)c1ccncc1-c1nc(CN(Cc2ccccc2)Cc2ccccc2)c2ccccn12` [Example 124, 1-(dibenzylaminomethyl)-3-(4-trifluoromethylpyridin-3-yl)-imidazo[1,5-a]pyridine], the pest or weed control at 100 ppm with Aphis gossypii is at least 80%. Further, the pest or weed control at 500 g/ha with Myzus persicae (setting [1]) is at least 80%.
Turning to `O=C(O)c1nc(-c2cnccc2C(F)(F)F)n2ccccc12` [Example 126, 3-(4-trifluoromethylpyridin-3-yl)-imidazo[1,5-a]pyridine-1-carboxylic acid], the pest or weed control at 100 ppm in the test on Aphis gossypii is at least 80%. Besides, the pest or weed control at 500 g/ha with Myzus persicae (setting [1]) is at least 80%.
As to `FC(F)(F)c1ccncc1-c1nc(/C=C/c2ccccc2)c2ccccn12` [Example 127, 1-(phenylvinylidene)-3-(4-Trifluoromethylpyridin-3-yl)-imidazo[1,5-a]-pyridine], the pest or weed control at 100 ppm in the test with Aphis gossypii was at least 80%. Besides, the pest or weed control at 500 g/ha in the test on Myzus persicae (setting [1]) was at least 80%.
Consider `CSc1nc(-c2cnccc2C(F)(F)F)n2ccccc12` [Example 128], for which, in the test on Myzus persicae (setting [1]), the pest or weed control at 500 g/ha is at least 80%.
Take `Cc1cc(C)nc(CNC(=O)c2cnccc2C(F)(F)F)n1` [II-11, N-(4,6-Dimethylpyrimidin-2-ylmethyl)-4-trifluoromethyl-nicotinamide]: the pest or weed control at 500 g/ha in the test on Myzus persicae (compounds of structure (II-b)) is at least 90%.
On to `O=C(NCc1ncccn1)c1cnccc1C(F)(F)F` [II-27, N-Pyrimidin-2-ylmethyl-4-trifluoromethyl-nicotinamide], for which the pest or weed control at 500 g/ha in the test with Myzus persicae (compounds of structure (II-b)) was at least 90%.
Take `Cc1cnc(CNC(=O)c2cnccc2C(F)(F)F)cn1` [II-29]: the pest or weed control at 500 g/ha with Myzus persicae (compounds of structure (II-b)) was at least 90%.
Regarding `Cc1cc(CNC(=O)c2cnccc2C(F)(F)F)nc(C)n1` [II-38, N-(2,6-Dimethylpyrimidin-4-ylmethyl)-4-trifluoromethyl nicotinamide], the pest or weed control at 500 g/ha with Myzus persicae (setting [1]) is at least 80%; in the test on Myzus persicae (compounds of structure (II-b)) it was at least 90%.

The values above are taken from US20080293674A1, “Azinyl Imidazoazine and Azinyl Carboxamide” (priority 2004, published 2008).
